Reference: PubChem BioAssay (NCI)
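How tested: cells in 96-well plates exposed to compound for 48 hours at five concentrations. Abbreviation: GI50, concentration required for 50% inhibition of growth. The concentration for full growth arrest is given as TGI.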

Assays:
Experiment in all cases: growth of human tumour cells (NCI), 48 h
MDA-N = test system: MDA-N
DLD-1 colon = test system: DLD-1 colon
HOP-18 NSCLC = test system: HOP-18 NSCLC
XF 498 CNS = test system: XF 498 CNS
KM20L2 colon = test system: KM20L2 colon
DMS 114 small cell lung = test system: DMS 114 small cell lung
RXF-631 renal = test system: RXF-631 renal

With `Oc1ccc(SCc2ccc(NCc3ccccc3)cc2)cc1` the TGI (MDA-N) was 57.4 µM.

For `CC(C)c1ccc(O)c(=O)cc1`, the TGI (DLD-1 colon) was > 100 µM, the TGI (HOP-18 NSCLC) was > 56.1 µM and the TGI (XF 498 CNS) was > 100 µM. The GI50 (MDA-N) was 22.7 µM, the TGI (KM20L2 colon) was > 100 µM and the TGI (DMS 114 small cell lung) was 11.5 µM.

With `COC1(OC)c2ccccc2C2(O)c3ccccc3C(=O)C12` (stereo unspecified) the TGI (HOP-18 NSCLC) was > 100 µM, the TGI (XF 498 CNS) was 58.8 µM and the TGI (KM20L2 colon) was > 100 µM. The TGI (DMS 114 small cell lung) was > 100 µM.

For `CN(Cc1ccccc1)C1(N(C)Cc2ccccc2)CC1`, the TGI (DLD-1 colon) was > 100 µM, the TGI (HOP-18 NSCLC) was > 100 µM and the TGI (XF 498 CNS) was > 100 µM. For the same compound, the TGI (KM20L2 colon) was > 100 µM and the TGI (DMS 114 small cell lung) was > 100 µM.

With `O=[N+]([O-])c1ccc2c(c1)S(=O)c1ccccc1-2` (stereo unspecified) the TGI (MDA-N) was > 100 µM.

In the case of `Cc1nn(C)c(=O)c2nn(-c3ccccc3)c(C)c12`, the TGI (DLD-1 colon) is reported as > 100 µM, the TGI (HOP-18 NSCLC) is reported as > 100 µM and the TGI (KM20L2 colon) is reported as > 100 µM. For the same compound, the TGI (DMS 114 small cell lung) was > 100 µM.

In the case of `COc1ccc(Nc2c[nH]c(=O)[nH]c2=O)cc1`, the TGI (MDA-N) is reported as > 100 µM.

With `O=C1CC(c2c[nH]c3ccccc23)C(=O)N1c1ccccc1` (stereo unspecified) the TGI (DLD-1 colon) was > 100 µM, the TGI (XF 498 CNS) was > 100 µM and the TGI (KM20L2 colon) was > 100 µM.

With `CC(C)(C)C(=O)OCC(COC(=O)C(C)(C)C)[N+](=O)[O-]` the TGI (DLD-1 colon) was > 100 µM, the TGI (XF 498 CNS) was > 100 µM and the TGI (DMS 114 small cell lung) was > 100 µM.

In the case of `C1C[OH+]CC[OH+]CC[OH+]CC[OH+]CC[OH+]CC[OH+]1.[Cl-].[Ta+5]`, the GI50 (KM20L2 colon) is reported as > 100 µM and the TGI (KM20L2 colon) is reported as > 100 µM.

For `COc1cc(/C=C2\CCc3ccccc3C2=O)cc(OC)c1OC`, the TGI (DLD-1 colon) was 28.3 µM, the TGI (HOP-18 NSCLC) was 26.9 µM and the TGI (RXF-631 renal) was 38.6 µM. For the same compound, the TGI (XF 498 CNS) was 32.1 µM, the TGI (KM20L2 colon) was 31.1 µM and the TGI (DMS 114 small cell lung) was 25.1 µM.

For `CC(C)CC(=O)CC(O)C(Cl)(Cl)Cl` (stereo unspecified), the TGI (MDA-N) was > 100 µM.

In the case of `CS(=O)(=O)CS(=O)CS(=O)CS(=O)CC(NC(=O)CCC(N)C(=O)O)C(=O)O` (stereo unspecified), the TGI (MDA-N) is reported as > 100 µM.

With `CC1=N/C(=C\c2cccc3ccccc23)C(=O)O1` the TGI (DLD-1 colon) was > 100 µM, the TGI (HOP-18 NSCLC) was > 100 µM and the TGI (RXF-631 renal) was > 100 µM. The TGI (KM20L2 colon) was > 100 µM and the TGI (DMS 114 small cell lung) was > 100 µM.

Work on `N#Cc1ccc2oc3ccc(C#N)cc3c(=O)c2c1` yielded a TGI (MDA-N) of 31.9 µM.

For `COC(=O)C(=O)C(C#N)c1ccc(Cl)c(Cl)c1` (stereo unspecified), the TGI (DLD-1 colon) was > 100 µM, the TGI (RXF-631 renal) was > 100 µM and the TGI (XF 498 CNS) was > 100 µM. For the same compound, the TGI (KM20L2 colon) was > 100 µM.

In the case of `O=C(CC(=O)c1ccccc1NC1=Cc2ccccc2C(=O)C1=O)C(=O)NC1=C(Cl)C(=O)c2ccccc2C1=O`, the TGI (DLD-1 colon) is reported as 11.7 µM, the TGI (RXF-631 renal) is reported as 31.9 µM and the TGI (XF 498 CNS) is reported as 4.66 µM. The TGI (MDA-N) was 3.15 µM, the TGI (KM20L2 colon) was 30.5 µM and the TGI (DMS 114 small cell lung) was 4 µM.

With `O=c1c2cccnc2ncn1CCCN1CCOCC1` the TGI (DLD-1 colon) was > 100 µM, the TGI (XF 498 CNS) was > 100 µM and the TGI (KM20L2 colon) was > 100 µM. The TGI (DMS 114 small cell lung) was > 100 µM.

For `Cc1cccc(N2C(=O)C(=O)C(c3nc4ccccc4s3)C(=O)C2=O)c1C`, the TGI (DLD-1 colon) was > 100 µM, the TGI (HOP-18 NSCLC) was > 100 µM and the TGI (RXF-631 renal) was > 100 µM. For the same compound, the TGI (KM20L2 colon) was > 100 µM and the TGI (DMS 114 small cell lung) was > 100 µM.

`C=C1C(=O)O[C@H]2[C@H]1CC(=O)/C(C)=C\CC[C@@]1(C)O[C@@H]21` gave a GI50 (MDA-N) of 3.58 µg/mL and a TGI (MDA-N) of 7.87 µg/mL.

In the case of `O=C1CCC(=O)C12CCc1cccc(O)c12`, the TGI (DLD-1 colon) is reported as > 100 µM, the TGI (HOP-18 NSCLC) is reported as > 100 µM and the TGI (XF 498 CNS) is reported as > 100 µM. For the same compound, the TGI (KM20L2 colon) was > 100 µM and the TGI (DMS 114 small cell lung) was > 100 µM.

In the case of `Cc1nc2ccc(NCCN(C)C)c3c(=O)c4cc(O)ccc4n1c23`, the TGI (RXF-631 renal) is reported as 1.96 µM, the TGI (XF 498 CNS) is reported as 11.2 µM and the TGI (MDA-N) is reported as 13.7 µM. It also gave a TGI (DMS 114 small cell lung) of 2.14 µM.

`COc1ccc(S(=O)(=O)N/N=C(\C)CN2C(=O)c3ccccc3C2=O)cc1` was tested, and the TGI (DLD-1 colon) was > 100 µM, the TGI (HOP-18 NSCLC) was > 100 µM and the TGI (RXF-631 renal) was > 100 µM. The TGI (KM20L2 colon) was > 100 µM and the TGI (DMS 114 small cell lung) was > 100 µM.

`Cn1cnc([N+](=O)[O-])c1Sc1nnc(C(F)(F)F)n1C` showed a TGI (DLD-1 colon) of 33.5 µM, a TGI (HOP-18 NSCLC) of 76.2 µM and a TGI (RXF-631 renal) of 39.6 µM. For the same compound, the TGI (DMS 114 small cell lung) was > 100 µM.

`Cc1ccc([Se][Se]c2ccc(C)cc2)cc1` was tested, and the TGI (DLD-1 colon) was > 100 µM, the TGI (HOP-18 NSCLC) was 33.5 µM and the TGI (RXF-631 renal) was 77.9 µM. For the same compound, the TGI (XF 498 CNS) was 40.8 µM, the TGI (KM20L2 colon) was > 100 µM and the TGI (DMS 114 small cell lung) was 57 µM.

For `O=C1CCC2CCOc3ccc(O)c1c32` (stereo unspecified), the TGI (DLD-1 colon) was > 100 µM, the TGI (RXF-631 renal) was > 100 µM and the TGI (KM20L2 colon) was > 100 µM. For the same compound, the TGI (DMS 114 small cell lung) was > 100 µM.

For `COc1cccc2c1C(=O)c1c(O)c3c(c(O)c1C2=O)C[C@@](O)(/C(C)=N\O)C[C@@H]3OC1CC(N)C(O)C(C)O1` (stereo partly specified), the TGI (DLD-1 colon) was 18.2 µM, the TGI (HOP-18 NSCLC) was 7.26 µM and the TGI (RXF-631 renal) was 45.5 µM. It also gave a TGI (XF 498 CNS) of 0.951 µM, a TGI (MDA-N) of 5.83 µM and a TGI (KM20L2 colon) of 30.9 µM. The TGI (DMS 114 small cell lung) was 2.58 µM.

For `O=C(/C=C/c1ccc(Cl)cc1)c1ccncc1`, the TGI (DLD-1 colon) was > 100 µM, the TGI (HOP-18 NSCLC) was > 100 µM and the TGI (RXF-631 renal) was > 100 µM. The TGI (KM20L2 colon) was > 100 µM and the TGI (DMS 114 small cell lung) was > 100 µM.

With `O=C(O/N=C1/CCCC/C1=C\c1ccccc1)c1ccc(Cl)cc1` the TGI (DLD-1 colon) was > 100 µM, the TGI (HOP-18 NSCLC) was > 100 µM and the TGI (XF 498 CNS) was 48.1 µM. For the same compound, the TGI (KM20L2 colon) was > 100 µM.

In the case of `CC1=N/C(=C\c2ccc([N+](=O)[O-])cc2)C(=O)O1`, the TGI (DLD-1 colon) is reported as > 100 µM, the TGI (HOP-18 NSCLC) is reported as > 100 µM and the TGI (RXF-631 renal) is reported as > 100 µM. For the same compound, the TGI (KM20L2 colon) was > 100 µM and the TGI (DMS 114 small cell lung) was > 100 µM.

For `CCOC(=O)C1(C(=O)OCC)CC=C(C)CC12C(=O)Nc1ccccc12` (stereo unspecified), the TGI (DLD-1 colon) was > 100 µM, the TGI (HOP-18 NSCLC) was > 100 µM and the TGI (XF 498 CNS) was > 100 µM. The TGI (KM20L2 colon) was > 100 µM and the TGI (DMS 114 small cell lung) was > 100 µM.

For `CC1=C(c2cc(C(=O)Nc3cccc(C(F)(F)F)c3)nc(NC#N)n2)Sc2ccccc2N1`, the TGI (DLD-1 colon) was > 100 µM, the TGI (HOP-18 NSCLC) was > 100 µM and the TGI (RXF-631 renal) was > 100 µM. The TGI (KM20L2 colon) was > 100 µM and the TGI (DMS 114 small cell lung) was > 100 µM.

For `O=C1C=C(Nc2nc(C(=O)O)cc(=O)[nH]2)c2ccccc2C1=O`, the TGI (MDA-N) was > 100 µM.

Compound `CN(C)CCNC(=O)c1cccc2c1nc(-c1ccccn1)c1ccccc12` has a TGI (DLD-1 colon) of 31 µM, a TGI (HOP-18 NSCLC) of 96.8 µM and a TGI (DMS 114 small cell lung) of 36.3 µM.

`O=C1c2ccccc2C2(O)Oc3cccc(O)c3C12O` (stereo unspecified) was tested, and the TGI (DLD-1 colon) was > 100 µM, the TGI (HOP-18 NSCLC) was > 100 µM and the TGI (RXF-631 renal) was > 100 µM. The TGI (KM20L2 colon) was > 100 µM and the TGI (DMS 114 small cell lung) was > 100 µM.

`C=CCNC(=S)OCCCCCCCCCC` was tested, and the TGI (DLD-1 colon) was 30.7 µM, the TGI (HOP-18 NSCLC) was 51.8 µM and the TGI (XF 498 CNS) was 29.7 µM. For the same compound, the TGI (KM20L2 colon) was 33.2 µM and the TGI (DMS 114 small cell lung) was 32.1 µM.

In the case of `Cc1nn(C)c(=S)n(C)c1=O`, the TGI (DLD-1 colon) is reported as > 100 µM, the TGI (HOP-18 NSCLC) is reported as 4.89 µM and the TGI (XF 498 CNS) is reported as 5.31 µM. The TGI (KM20L2 colon) was > 100 µM and the TGI (DMS 114 small cell lung) was 0.842 µM.

In the case of `COP1(=S)OCC2CCC[C@@H]2O1` (stereo partly specified), the TGI (MDA-N) is reported as > 100 µM.

`CCCCCCCCCC(=O)N[C@H]1CCc2cc(OC)c(OC)c(OC)c2-c2ccc(SC)c(=O)cc21` was tested, and the GI50 (DLD-1 colon) was 11.2 µM, the TGI (DLD-1 colon) was 57.7 µM and the TGI (XF 498 CNS) was 0.0693 µM. For the same compound, the TGI (KM20L2 colon) was 0.0387 µM and the TGI (DMS 114 small cell lung) was 0.0403 µM.

In the case of `N#Cc1nc(Nc2ccc([N+](=O)[O-])cc2)sc1N`, the TGI (DLD-1 colon) is reported as > 100 µM, the TGI (HOP-18 NSCLC) is reported as > 100 µM and the TGI (RXF-631 renal) is reported as > 75 µM. The TGI (XF 498 CNS) was > 100 µM and the TGI (KM20L2 colon) was > 100 µM.

In the case of `CCc1nc(N)nc(N)c1-c1ccc(Cl)c(N=NN(C)C)c1`, the TGI (MDA-N) is reported as > 100 µM.

In the case of `CC(C)(CCC(C)(C)c1ccccc1)c1ccccc1`, the TGI (MDA-N) is reported as 56.8 µM.
